Results on 5 compounds are retold here after patent publication US10961202B2, “Bis-benzimidazole compounds and methods of using the same” (THE SCRIPPS RESEARCH INSTITUTE, priority 2017, dated 2021).

Assay [1] deals with MBNL1 exon 5 inclusion in DM1 myotubes. As to the kind of experiment: Myotube splicing rescue assay (MBNL1 exon 5 inclusion). In kind it is cell-based, human. The note with it: 48-hour incubation.
Assay [2] deals with HSALR strain 20b mice. As to the kind of experiment: DM1 mouse efficacy study: RT-PCR of MBNL1-dependent splicing targets in gastrocnemius. The note with it: sc, 3 mg/kg qod 5 doses, subcutaneous. It counts as in vivo. The text has this: HSALR strain 20b mice were used as a model for myotonic dystrophy type I (DM1) experimental studies when testing the efficacy of candidate compounds. To determine the genotype of the mice, the transgene of human skeletal actin (HSA) genomic level was compared to endogenous mouse skeletal actin (MSA) by PCR. Mice with an HSA:MSA ratio of 2:1, homozygous mice were used for the study. Disease phenotype was confirmed in homozygous HSALR by assessing myotonia by pinching the quadriceps of the mouse. […] Homozygous HSALR that have been confirmed by PCR genotyping HSA:MSA ratio and are positive for pinch myotonia were selected for candidate compound efficacy studies for DM1.
For each study, a control group of PBS injected mice was included along with mice test groups injected with the compound to be tested. For a statistical power >80%, five mice were used per group (three females and two males). As previously indicated, homozygous HSALR mice were selected aged 8-12 weeks at the beginning of the study. Littermate mice were evenly distributed across groups in the study. Each cage contained mice from a single group. Female mice from different litters were combined into one cage for a single test group. Male mice cannot be combined in cages with non-littermate mice. If any fighting occurred in cages with multiple mice, the mice with minor/superficial fight wounds were be separated and monitored. Mice with severe fight wounds were removed from the study. Mice were monitored throughout the study for weight changes over time, behavioral changes at time of injection, and any other potential health concerns that arose during the study.
Mice were injected with approximately ˜200 μL solution subcutaneously by 28-gauge syringe. The volume administered was determined by the weight of the mouse where 10 iaL solution is administered per 1 g of the weight of the mouse. The compound was solubilized in DPBS at a concentration of […], which equated to a dose of 0.1-3.0 mg compound per kg weight of the animal (mpk). Mice were weighed once a week, and the volume of administered compound solution (or DPBS) was adjusted accordingly for correct mpk dosing. Once a compound was tested for acute toxicity in FVB wildtype mice, the compound was typically first tested at 3 mpk, injected every other day (q.o.d.) for five doses, and the mice sacrificed 24 hr after the last injection. Candidate compounds were further tested at different dose regimes to further assess the compound's efficacy in DM1 mice.
For each mouse, blood, brain, heart, liver, kidney, tibialis anterior, gastrocnemius, and quadriceps were dissected and collected. After the mouse was euthanized, blood was collected by cardiac puncture and placed in lithium heparin tubes on ice. Plasma was separated by centrifugation and collected. Brain, heart, half of the liver, tibialis anterior, gastrocnemius, and quadriceps were flash frozen in liquid nitrogen. Half of the liver, kidneys, and subset of heart samples were fixed in 10% formalin. One of the two tibialis anterior muscles was frozen with OCT for cyro-sectioning.
Gastrocnemius muscle was used for downstream RNA extraction RT-PCR. […] Half of one gastrocnemius was used for an RNA extraction. The gastrocnemius was homogenized in Trizol reagent and extracted following the protocol of the Zymo Direct-zol RNA Mini Prep Plus kit.
For each RNA sample, 500 ng of RNA was used for a reverse transcription reaction to produce single-stranded cDNA. MBNL1-dependent splicing targets (Clcn1 exon 7a, Mbnl1 exon 5, Sercal exon 22, and Zasp exon 11) and MBNL1-independent splicing targets (Capzb exon 8, Itgb1 exon 17) were assessed by RT-PCR. For the alternative exons listed, forward and reverse primers were designed to amplify the alternative exon along with the flanking constitutive exons such that one primer may produce two PCR products: one PCR product including the alternative exon and one PCR product excluding the alternative exon. […]

Another assay deals with r(CUG)12-MBNL1 complex. The assay is described as follows: Inhibition of the r(CUG)12-MBNL1 complex measured by TR-FRET. In kind it is biochemical. Conditions: Table M; 80 nM RNA, 60 nM MBNL1-His6.
Assay [3] concerns HSALR strain 20b mice. As to the kind of experiment: DM1 mouse efficacy study: RT-PCR of MBNL1-dependent splicing targets in gastrocnemius. In kind it is in vivo. Conditions: sc, 7.5 mg/kg qod 5 doses, subcutaneous.
[4] abbreviates: read-out: Clcn1 exon 7a splicing rescue %.
Setting [5] is: read-out: Mbnl1 exon 5 splicing rescue %.
[6] abbreviates: read-out: Serca1 exon 22 splicing rescue %.
Where [7] appears, read: read-out: Zasp exon 11 splicing rescue %.

pIC50: −log10 of the molar value. Read-outs that look alike come from different tables or passages of the source.

`CN(C)CCCOc1ccc2nc(-c3ccc(-c4nc5ccc(OCCCN(C)C)cc5[nH]4)c(F)c3)[nH]c2c1` [Compound 286, (3-[[2-(4-[6-[3-(dimethylamino)propoxy]-1H-1,3-benzodiazol-2-yl]-3-fluorophenyl)-1H-1,3-benzodiazol-6-yl]oxy]propyl)dimethylamine]: the “MBNL1 % splicing rescue at 10 μM” value in assay [1] was found to be 96.4%. Further, the percent splicing rescue at 3 mg/kg was 65.8% in the assay on HSALR strain 20b mice [2] (setting [4]), 70.4% with HSALR strain 20b mice [2] (setting [5]), 40.4% in the assay with HSALR strain 20b mice [2] (setting [6]) and 60% in the assay with HSALR strain 20b mice [2] (setting [7]). The same compound gave a negative logarithm of the IC50 (pIC50) in the assay on r(CUG)12-MBNL1 complex of 4.85.
Turning to `CN(C)CCCOc1ccc2nc(-c3cnc(-c4nc5ccc(OCCCN(C)C)cc5[nH]4)cn3)[nH]c2c1` [Compound 274], in assay [1], the “MBNL1 % splicing rescue at 10 μM” value stood at 65.3%. In addition, the percent splicing rescue at 3 mg/kg with HSALR strain 20b mice [2] (setting [4]) stood at 31.6%; in the assay on HSALR strain 20b mice [2] (setting [5]), 25.2%; with HSALR strain 20b mice [2] (setting [6]), 10.7%; with HSALR strain 20b mice [2] (setting [7]), 29.8%. In addition, in the assay with r(CUG)12-MBNL1 complex, the pIC50 was 4.92.
Consider `CN1CCC(COc2ccc3nc(-c4ccc(-c5nc6ccc(OCC7CCN(C)CC7)cc6[nH]5)cc4)[nH]c3c2)CC1` [Compound 198, 1,4-bis(6-((1-methylpiperidin-4-yl)methoxy)-1H-benzo[d]imidazol-2-yl)benzene], for which the percent splicing rescue at 7.5 mg/kg was 90.4% in the assay on HSALR strain 20b mice [3] (setting [4]), 94.5% in the assay with HSALR strain 20b mice [3] (setting [5]), 61.2% in the assay on HSALR strain 20b mice [3] (setting [6]) and 91.5% in the assay with HSALR strain 20b mice [3] (setting [7]). Moreover, the “MBNL1 % splicing rescue at 10 μM” value in assay [1] was determined as 109.8%. Further, the percent splicing rescue at 3 mg/kg with HSALR strain 20b mice [2] (setting [4]) was 55.1%; in the assay on HSALR strain 20b mice [2] (setting [5]) it was 49.7%; in the assay on HSALR strain 20b mice [2] (setting [6]), 22.3%; in the assay on HSALR strain 20b mice [2] (setting [7]), 35%. This compound also gave a pIC50 with r(CUG)12-MBNL1 complex of 5.01.
In the case of `CN(C)CCOc1cccc(-c2nc3cc(-c4ccc5[nH]c(-c6cccc(OCCN(C)C)c6)nc5c4)ccc3[nH]2)c1` [Compound 354], the “MBNL1 % splicing rescue at 1 μM” value in assay [1] (1 μM) stood at 66.0%. In assay [1], the “MBNL1 % splicing rescue at 10 μM” value was 64.2%. Also, the percent splicing rescue at 3 mg/kg in the assay with HSALR strain 20b mice [2] (setting [4]) was -14%; with HSALR strain 20b mice [2] (setting [5]), -0.1%; in the assay on HSALR strain 20b mice [2] (setting [6]) it was 0.1%; in the assay with HSALR strain 20b mice [2] (setting [7]), -0.1%. Also, in the assay with r(CUG)12-MBNL1 complex, the pIC50 is 4.78.
As to `c1cc2nc(-c3ccc(-c4nc5ccc(OCCCN6CCCCC6)cc5[nH]4)cc3)[nH]c2cc1OCCCN1CCCCC1` [Compound 214], the “MBNL1 % splicing rescue at 10 μM” value in assay [1] came to 119.3%. In addition, the percent splicing rescue at 3 mg/kg with HSALR strain 20b mice [2] (setting [4]) was -31.6%; in the assay on HSALR strain 20b mice [2] (setting [5]), -17.3%; with HSALR strain 20b mice [2] (setting [6]), -5.1%; with HSALR strain 20b mice [2] (setting [7]) it was -12.1%. This compound also showed a pIC50 with r(CUG)12-MBNL1 complex of 4.60.

The pIC50 is −log10 of the IC50, conventionally taken in molar units. Read a high pIC50 as a low IC50.
